Measurements: US6743804B2, “Quinoline derivatives as NK3 antagonists” (SmithKline Beecham S p.A., priority 1996, dated 2004)
Counter-ions that a name gives are not always drawn.

system: not given; assay: not given

SMILES | melting point
COC(=O)C(NC(=O)c1cc(-c2ccccc2Cl)nc2ccccc12)c1ccccc1 (centres unmarked) [Example 78] | 175 to 178 °C
O=C(NC(CO)c1ccccc1)c1cc(-c2ccccc2)nc2ccccc12 (centres unmarked) [Example 28] | 117 to 119 °C
CCC(NC(=O)c1c(-c2ccccc2)c(-c2ccccc2)nc2ccccc12)c1ccccc1 (centres unmarked) [Example 25] | 198 to 200 °C
CCCCC(NC(=O)c1cc(-c2ccccc2)nc2ccccc12)c1ccccc1 (centres unmarked) [Example 56] | 155 to 156 °C
COCC(NC(=O)c1cc(-c2ccccc2)nc2ccccc12)c1ccccc1 (centres unmarked) [Example 34] | 144 to 145 °C
COC(=O)C(NC(=O)c1cc(-c2ccccc2OC)nc2ccccc12)c1ccccc1 (centres unmarked) [Example 24] | 124 to 125 °C
COC(=O)C(NC(=O)c1cc(-c2ccccc2C)nc2ccccc12)c1ccccc1 (centres unmarked) [Example 59] | 180 to 182 °C
COC(=O)C(NC(=O)c1cc(-c2ccc3c(c2)OCO3)nc2ccccc12)c1ccccc1 (centres unmarked) [Example 63] | 186 to 187 °C
CCC(NC(=O)c1c(OC)c(-c2ccccc2)nc2ccccc12)c1ccccc1 (centres unmarked) [Example 18] | 164 to 165 °C
CCC(NC(=O)c1c(N2C(=O)c3ccccc3C2=O)c(-c2ccccc2)nc2ccccc12)c1ccccc1 (centres unmarked) [Example 39] | 201 to 202 °C
CCC(NC(=O)c1cc(-c2ccccc2)nc2ccccc12)c1ccc(C)cc1 (centres unmarked) [Example 65] | 160 to 162 °C
CC[C@H](NC(=O)c1c(OC)c(-c2ccccc2)nc2ccccc12)c1ccccc1 [Example 47] | 132 to 134 °C
COC(=O)C(NC(=O)c1cc(-c2cc3ccccc3o2)nc2ccccc12)c1ccccc1 (centres unmarked) [Example 44] | 240 to 241 °C
COC(=O)C(NC(=O)c1cc(-c2ccc(C)cc2)nc2ccccc12)c1ccccc1 (centres unmarked) [Example 57] | 172 to 174 °C
CCCc1c(-c2ccccc2)nc2ccccc2c1C(=O)NC(CC)c1ccccc1 (centres unmarked) [Example 40] | 149 to 151 °C
O=C(NC(c1ccccc1)C(F)(F)F)c1cc(-c2ccccc2)nc2ccccc12 (centres unmarked) [Example 46] | 180 to 181 °C
COC(=O)C(NC(=O)c1cc(-c2ccc(OC)cc2)nc2ccccc12)c1ccccc1 (centres unmarked) [Example 60] | 182 to 183 °C
COC(=O)C(NC(=O)c1cc(-c2ccccc2)nc2ccc(F)cc12)c1ccccc1 (centres unmarked) [Example 75] | 174 to 176 °C
CC[C@H](NC(=O)c1c(C)c(-c2ccc(Br)cc2)nc2ccc(Br)cc12)c1ccccc1 [Example 41] | 230 to 231 °C
COC(=O)C(NC(=O)c1c2c(nc3ccccc13)-c1ccccc1CCC2)c1ccccc1 (centres unmarked) [Example 20] | 186 to 188 °C

SMILES | melting point
COC(=O)C(NC(=O)c1cc(C2CCCCC2)nc2ccccc12)c1ccccc1 (centres unmarked) [Example 76] | 151 to 153 °C
COC(=O)C(NC(=O)c1cc(-c2ccccc2)nc2c(O)cccc12)c1ccccc1 (centres unmarked) [Example 81] | 178 to 180 °C
COC(=O)[C@H](NC(=O)c1cc(-c2ccccc2)nc2ccccc12)C1=CCC=CC1 [Example 16] | 120 to 122 °C
CC[C@H](NC(=O)c1c(Br)c(-c2ccccc2)nc2ccccc12)c1ccccc1 [Example 71] | 119 to 122 °C
NC[C@H](NC(=O)c1cc(-c2ccccc2)nc2ccccc12)c1ccccc1 [Example 68] | 139 to 141 °C
COC(=O)C(NC(=O)c1cc(-c2cc[nH]c2)nc2ccccc12)c1ccccc1 (centres unmarked) [Example 66] | 202 to 204 °C
O=C(NC(Cc1ccccc1)c1ccccc1)c1cc(-c2ccccc2)nc2ccccc12 (centres unmarked) [Example 45] | 194 to 196 °C
CC[C@H](NC(=O)c1c(C)c(-c2ccccc2)nc2ccc(Br)cc12)c1ccccc1 [Example 42] | 179 to 180 °C
COC(=O)C(NC(=O)c1cc(-c2ccsc2)nc2ccccc12)c1ccccc1 (centres unmarked) [Example 51] | 169 to 171 °C
CCc1c(-c2ccccc2)nc2ccccc2c1C(=O)NC(CC)c1ccccc1 (centres unmarked) [Example 38] | 158 to 159 °C
COC(=O)C(NC(=O)c1cc(-c2ccc[nH]2)nc2ccccc12)c1ccccc1 (centres unmarked) [Example 53] | 181 to 182 °C
COC(=O)C(NC(=O)c1cc(-c2cccc(Cl)c2)nc2ccccc12)c1ccccc1 (centres unmarked) [Example 77] | 161 to 163 °C
COC(=O)C(NC(=O)c1cc(-c2nccs2)nc2ccccc12)c1ccccc1 (centres unmarked) [Example 54] | 209 to 211 °C
COC(=O)C(NC(=O)c1cc(-c2ccccc2)nc2ccc(Cl)cc12)c1ccccc1 (centres unmarked) [Example 35] | 197 to 199 °C
COC(=O)C(NC(=O)c1cc(-c2ccccc2)nc2c(OC(C)=O)cccc12)c1ccccc1 (centres unmarked) [Example 80] | 193 to 194 °C
CC(C)(NC(=O)c1cc(-c2ccccc2)nc2ccccc12)c1ccccc1 [Example 64] | 173 to 174 °C
O=C(NC1(c2ccccc2)CCCC1)c1cc(-c2ccccc2)nc2ccccc12 [Example 61] | 164 to 165 °C
COC(=O)[C@H](NC(=O)c1c(O)c(-c2ccccc2)nc2ccccc12)c1ccccc1 [Example 87] | 125 to 127 °C
CCCC(NC(=O)c1cc(-c2ccccc2)nc2ccccc12)c1ccccc1 (centres unmarked) [Example 37] | 149 to 150 °C
COC(=O)C(NC(=O)c1cc(-c2ccccc2)nc2ccc(OC)cc12)c1ccccc1 (centres unmarked) [Example 43] | 209 to 211 °C

SMILES | melting point
CC[C@H](NC(=O)c1c(Cl)c(-c2ccccc2)nc2ccccc12)c1ccccc1 [Example 70] | 137 to 139 °C
C[C@H](O)[C@H](NC(=O)c1cc(-c2ccccc2)nc2ccccc12)c1ccccc1 [Example 17, (R,S)-N-[α-(1-hydroxyethyl)benzyl]-2-phenylquinoline-4-carboxamide] | 204 to 205 °C
COC(=O)C(NC(=O)c1cc(-c2ccc(O)cc2)nc2ccccc12)c1ccccc1 (centres unmarked) [Example 62] | 226 to 227 °C
COC(=O)[C@H](NC(=O)c1cc(-c2ccccc2)nc2ccccc12)c1ccc(O)cc1 (as salt: HCl) [Example 83, (R)-N-[α-(methoxycarbonyl)-4-hydroxybenzyl]-2-phenylquinoline-4-carboxamide] | 140 °C (dec.)
COC(=O)C(NC(=O)c1cc(-c2ccc(Cl)c(Cl)c2)nc2ccccc12)c1ccccc1 (centres unmarked) [Example 67] | 164 to 165 °C
COC(=O)C(NC(=O)c1c2c(nc3ccccc13)-c1ccccc1CC2)c1ccccc1 (centres unmarked) [Example 52] | 217 to 219 °C
CCC(NC(=O)c1cc(-c2ccccc2)nc2ccccc12)c1ccc(Cl)c(Cl)c1 (centres unmarked) [Example 27] | 193 to 194 °C
COC(=O)C(NC(=O)c1cc(-c2ccccc2)nc2cc(Cl)ccc12)c1ccccc1 (centres unmarked) [Example 32] | 180 to 183 °C
COC(=O)C(c1ccccc1)N(C)C(=O)c1cc(-c2ccccc2)nc2ccccc12 (centres unmarked) [Example 50] | 128 to 129 °C
CCC(NC(=O)c1cc(-c2ccccc2)nc2ccccc12)c1ccc(Cl)cc1 (centres unmarked) [Example 49] | 177 to 178 °C
COC(=O)C(NC(=O)c1c(C)c(-c2ccccc2)nc2ccccc12)c1ccccc1 (centres unmarked) [Example 30] | 180 to 181 °C
COC(=O)C(NC(=O)c1cc(-c2ccc(Cl)cc2Cl)nc2ccccc12)c1ccccc1 (centres unmarked) [Example 82] | 142 to 143 °C
CC(C)C(NC(=O)c1cc(-c2ccccc2)nc2ccccc12)c1ccccc1 (centres unmarked) [Example 72] | 165 to 166 °C
O=C(NC(c1ccccc1)c1ccccc1)c1cc(-c2ccccc2)nc2ccccc12 [Example 84] | 182 to 184 °C
COC(=O)C(NC(=O)c1cc(-c2ccccc2F)nc2ccccc12)c1ccccc1 (centres unmarked) [Example 26] | 146 to 147 °C
CCc1c(-c2ccccc2)nc2ccccc2c1C(=O)NC(C(=O)OC)c1ccccc1 (centres unmarked) [Example 36] | 156 to 157 °C
CCc1c(-c2ccccc2)nc2ccccc2c1C(=O)N[C@@H](CC)c1ccccc1 [Example 48] | 118 to 120 °C
COC(=O)C(NC(=O)c1cc(-c2ccccc2)nc2ccc(C)cc12)c1ccccc1 (centres unmarked) [Example 33] | 179 to 181 °C
CCCCc1c(-c2ccccc2)nc2ccccc2c1C(=O)NC(CC)c1ccccc1 (centres unmarked) [Example 19] | 147 to 150 °C

target: T1, guinea-pig NK3 receptors (Cavia porcellus, UniProt P30098); assay: Radioligand binding to guinea-pig NK3 receptors (guinea-pig cortex membranes, displacement of [3H]-Senktide or [125I]-[Me-Phe7]-NKB)
T1 sequence (P30098 1-440): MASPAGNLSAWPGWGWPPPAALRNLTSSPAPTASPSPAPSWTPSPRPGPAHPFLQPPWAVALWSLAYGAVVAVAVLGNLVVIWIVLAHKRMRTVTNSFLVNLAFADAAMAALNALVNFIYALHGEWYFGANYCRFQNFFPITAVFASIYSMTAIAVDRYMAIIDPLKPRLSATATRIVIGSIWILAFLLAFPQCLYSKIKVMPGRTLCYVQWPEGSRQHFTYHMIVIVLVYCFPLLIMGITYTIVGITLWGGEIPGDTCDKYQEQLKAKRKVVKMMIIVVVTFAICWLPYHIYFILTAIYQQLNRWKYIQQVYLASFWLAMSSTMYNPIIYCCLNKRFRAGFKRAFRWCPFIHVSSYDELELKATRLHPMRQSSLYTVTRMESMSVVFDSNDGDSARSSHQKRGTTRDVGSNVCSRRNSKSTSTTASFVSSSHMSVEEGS
Method: The activity of the compounds of the present invention, as NK3 ligands, is determined by their ability to inhibit the binding of the radiolabelled NK3 ligands, [^125I]-[Me-Phe^7]-NKB or [^3H]-Senktide, to guinea-pig and human NK3 receptors (Renzertti et al, 1991, Neuropeptide, 18, 104-114; Buell et al, 1992, FEBS, 299(1), 90-95; Chung et al, 1994, Biochem. Biophys. Res. Commun., 198(3), 967-972). The binding assays utilized allow the determination of the concentration of the individual compound required to reduce by 50% the [^125I]-[Me-Phe^7]-NKB and [^3H]-Senktide specific binding to NK3 receptor in equilibrium conditions (IC50). Binding assays provide for each compound tested a mean IC50 value of 2-5 separate experiments performed in duplicate or triplicate. […] The NK3-antagonist activity of the compounds of the present invention is determined by their ability to inhibit senktide-induced contraction of the guinea-pig ileum (Maggi et al, 1990, Br. J. Pharmacol., 101, 996-1000) and rabbit isolated iris sphincter muscle (Hall et al., 1991, Eur. J. Pharmacol., 199, 9-14) and human NK3 receptors-mediated Ca^++ mobilization (Mochizuki et al, 1994, J. Biol. Chem., 269, 9651-9658). Guinea-pig and rabbit in-vitro functional assays provide for each compound tested a mean KB value of 3-8 separate experiments, where KB is the concentration of the individual compound required to produce a 2-fold rightward shift in the concentration-response curve of senktide. Human receptor functional assay allows the determination of the concentration of the individual compound required to reduce by 50% (IC50 values) the Ca^++ mobilization induced by the agonist NKB.

SMILES | Ki
CC[C@H](NC(=O)c1c(OC)c(-c2ccccc2)nc2ccccc12)c1ccccc1 [Example 47] | 8.8 nM
CC[C@H](NC(=O)c1c(C)c(-c2ccccc2)nc2ccccc12)c1ccccc1 [Example 22] | 5.6 nM
CCc1c(-c2ccccc2)nc2ccccc2c1C(=O)N[C@@H](CC)c1ccccc1 [Example 48] | 12 nM
